Measurements as given in patent US20220096452A1, “LOCAL ANESTHETIC FOR THE TREATMENT OF NEUROLOGICAL SYMPTOMS RESULTING FROM BRAIN DYSFUNCTIONS” (ICM (INSTITUT DU CERVEAU ET DE LA MOELLE ÉPINIÈRE), priority 2019, published 2022).
“Also recorded” adds a separate entry of the source.

Tests used:
Assay type in all cases: in vivo, human
[1] = test system: patient who suffered from almost complete cortical blindness following a bilateral occipital stroke; assay: 18F-FDG PET-scan brain metabolism, on vs off periods
[2] = test system: patient who suffered from almost complete cortical blindness following a bilateral occipital stroke; assay: Clinical assessment of vision (visual field by confrontation), on vs off periods
Excerpt: In 2010, a patient underwent surgery for the removal of a cervical herniated intervertebral disc (C6-C7). Immediately following surgery, they suffered from a dissection of their right vertebral artery, resulting in bilateral occipital and right cerebellar infarcts. They presented initially with almost complete cortical blindness, left hemiparesis, gait instability, mild swallowing difficulties. Visual perception improved in a small peripheral part of their right visual hemifield, while all other symptoms recovered fully.
The inverse phenomenon took place, over about 1 minute, during the transition from on to off periods.

[3] = test system: patient who suffered from almost complete cortical blindness following a bilateral occipital stroke; assay: Visual field assessment, full-threshold Humphrey visual field (HVF), 24-2 SITA
Excerpt: Those clinical observations were supported and refined by assessment of the visual field with the full-threshold Humphrey visual field (HVF), 24-2 Swedish Interactive Thresholding Algorithm (SITA) (Carl Zeiss Meditec Inc., Dublin, Calif.).
The same pattern prevailed using Goldmann perimetry.

[4] = test system: patient who suffered from almost complete cortical blindness following a bilateral occipital stroke; assay: Resting state functional MRI connectivity, on vs off periods
Experimental: Resting state fMRI is a method of functional magnetic resonance imaging (fMRI) that is used in brain mapping to evaluate regional interactions that occur in a resting or task-negative state, when an explicit task is not being performed. We gathered MRI images while the patient was at rest with their eyes closed, during off and on periods. Those data were analyzed using the CONN toolbox (https://web.conn-toolbox.org/home). We report here two results providing pathophysiological correlates of vision recovery in the patient's right visual hemifield under Mepivacaine.
The left early visual cortex (or calcarine cortex) is the entry gate into the brain of visual information from the right hemifield. […] We predicted that whatever its underlying mechanism, functional recovery implies a restoration of functional communication between the left calcarine cortex and distant cortical areas.
We predicted that the restoration of vision should be accompanied with an overall increase of connectivity between the visual system and the rest of the brain. We computed for each voxel of the brain the average connectivity with the rest of the brain (or “intrinsic connectivity”), and studied the changes of this value between off and on periods.

[5] = test system: patient who suffered from almost complete cortical blindness following a bilateral occipital stroke; assay: Neurovisual evaluation (BORB and other tests) during on periods
Excerpt: As shown in the table below, during on periods, all tests involving visual perception were normal, except for a mild deficit in the Facial recognition test, with no discernible impairment of face perception in everyday life.

[6] = test system: patient who suffered from almost complete cortical blindness following a bilateral occipital stroke; assay: General neurological examination; conditions: either off or on Mepivacaine
Excerpt: Apart from the patient's visual status, […] general neurological examination was normal, either off or on Mepivacaine. They had no sensory or motor impairment, no abnormalities of the cranial nerves, no cognitive deficit (MMSE=29/30, FAB 16/18, Five Words Test 10/10). There was no psychiatric symptoms, except for a depressive mood whenever the patient was off medication and virtually blind.

general neurological examination (apart from visual status) [6]: normal
SMILES: Cc1cccc(C)c1NC(=O)C1CCCCN1C (stereo not shown) [Mepivacaine, I-methyl-2′,6′-pipecoloxylidide]
metabolism in the severely lesioned right mesial occipital cortex ([1]; on and off periods): severe and constant hypometabolism | metabolism in the intact left occipital and temporal cortex ([1]; on vs off periods, FIG. 6): significant increase in metabolism | vision in the left hemifield (confrontation) ([2]; during on periods): dense hemianopia persisted | vision in the right hemifield (confrontation) ([2]; during on periods): vision returned to normal in the right hemifield | duration of transition from off to on periods (widening of spared vision to whole right hemifield) ([2]; patient description): over a matter of seconds | duration of transition from on to off periods ([2]; patient description): about 1 minute | visual ability of the patient ([2]; pursuant administration, single patient): improvement of visual ability | vision in the left superior quadrant ([3]; on period / under Mepivacaine): recovered in a small paramedial island in the left superior quadrant; also recorded: extends to part of the left superior quadrant | vision in the right hemifield (HVF) ([3]; on period, FIG. 2): vision returned to normal in the whole right hemifield, except for a small superior paracentral island | island of right visual field corresponding to right occipital infarct ([3]; under Mepivacaine): not improved | functional connectivity of right-hemispheric calcarine region (control analysis) [4]: no significant differences between on and off periods | functional connectivity of left calcarine cortex with bilateral frontoparietal regions ([4]; FIG. 4): increase in connectivity | functional connectivity of left calcarine cortex with mesial and lateral regions (default-mode network) ([4]; FIG. 4): decrease in correlation | intrinsic connectivity of bilateral lateral occipital cortex with the rest of the brain ([4]; FIG. 5): increased its average functional connectivity with the rest of the brain | BORB TEST 1: Copying, score [5]: 9/9 | BORB TEST 2: Length Match Task, score [5]: 26/30 | BORB TEST 3: Size Match Task, score [5]: 28/30 | BORB TEST 4: Orientation Match Task, score [5]: 25/30 | BORB TEST 5: Position of Gap Match Task, score [5]: 37/40 | BORB TEST 7: Minimal Feature View Test, score [5]: 25/25 | BORB TEST 8: Foreshortened View Task, score [5]: 25/25 | BORB TEST 9: Drawing from Memory, score [5]: 6/6 | BORB TEST 10: Object Decision Task, score [5]: 26/32 | BORB TEST 11: Function Match Task, score [5]: 31/32 | BORB TEST 12: Associative Match Task, score [5]: 29/30 | Benton's Judgment of Line Orientation, score [5]: 14/15 | Block design test (WAIS-IV), score [5]: 53/66 | Facial recognition test (Benton, 1963), score [5]: 38/54 | Facial recognition test, in words [5]: mild deficit | Hooper Test (Richardson and Marattoli, 1996), score [5]: 27/30 | Matrix reasoning test (WAIS-IV), score [5]: 22/26 | OD 80 picture naming test (Deloche and Hannequin, 1996), score [5]: 80/80 | all tests involving visual perception [5]: normal | Block design test (WAIS-IV), NS ([5]; NS): 13 | Matrix reasoning test (WAIS-IV), NS ([5]; NS): 14 | BORB TEST 2: Length Match Task, z ([5]; z score): 0.56 | BORB TEST 3: Size Match Task, z ([5]; z score): 0.29 | BORB TEST 4: Orientation Match Task, z ([5]; z score): 0.08 | BORB TEST 5: Position of Gap Match Task, z ([5]; z score): 0.48 | BORB TEST 7: Minimal Feature View Test, z ([5]; z score): 0.85 | BORB TEST 8: Foreshortened View Task, z ([5]; z score): 1.31 | BORB TEST 10: Object Decision Task, z ([5]; z score): 0.45 | BORB TEST 11: Function Match Task, z ([5]; z score): 0.45 | BORB TEST 12: Associative Match Task, z ([5]; z score): 0.63 | Hooper Test (Richardson and Marattoli, 1996), z ([5]; z score): 1.30
